The values below come from PubChem BioAssay AID1259411 (Chemical Carcinogenesis Research Information System (CCRIS), 2018).

This data set relates to rodent carcinogenicity bioassays, tumor incidence. The experiment in a line: CCRIS carcinogenicity studies. Summed up:
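Archive of carcinogenicity, mutagenicity, tumor promotion and tumor inhibition results drawn from journals, NCI reports and other sources, expert-reviewed; covers 1985-2011 and is no longer updated.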

The source made the active and inactive calls. No rule for the calls is given here.

Turning to `Nc1ccc(Cc2ccc(N)cc2)cc1`, the carcinogen call is “active; positive” (Species: MOUSE, Strain/Sex: B6C3F1/FEMALE, Route: ORAL, Dose: 0, 0.015, 0.03% IN DIET FOR 103 WK (STUDY DURATION: 104 WK), Dose: 0, 0.015, 0.03% IN DIET FOR 103 WK (STUDY DURATION: 104 WK), Tumor Site: Type of Lesion: THYROID GLAND: FOLLICULAR ADENOMA, LIVER: HEPATOCELLULAR ADENOMA, LIVER: HEPATOCELLULAR CARCINOMA, Tumor Site: Type of Lesion: THYROID GLAND: FOLLICULAR ADENOMA, LIVER: HEPATOCELLULAR ADENOMA, LIVER: HEPATOCELLULAR CARCINOMA); “active; positive” (Species: MOUSE, Strain/Sex: B6C3F1/FEMALE, Route: ORAL, Dose: 0, 150, 300 PPM IN DRINKING WATER, Dose: 0, 150, 300 PPM IN DRINKING WATER, Tumor Site: Type of Lesion: THYROID GLAND: FOLLICULAR CELL ADENOMA, CARCINOMA, LIVER: HEPATOCELLULAR ADENOMA, CARCINOMA, LYMPHATIC SYSTEM: MALIGNANT, Tumor Site: Type of Lesion: THYROID GLAND: FOLLICULAR CELL ADENOMA, CARCINOMA, LIVER: HEPATOCELLULAR ADENOMA, CARCINOMA, LYMPHATIC SYSTEM: MALIGNANT); “active; positive” (Species: MOUSE, Strain/Sex: B6C3F1/MALE, Route: ORAL, Dose: 0, 0.015, 0.03% IN DIET FOR 103 WK (STUDY DURATION: 104 WK), Dose: 0, 0.015, 0.03% IN DIET FOR 103 WK (STUDY DURATION: 104 WK), Tumor Site: Type of Lesion: THYROID GLAND: FOLLICULAR ADENOMA, LIVER: HEPATOCELLULAR CARCINOMA); “active; positive” (Species: MOUSE, Strain/Sex: B6C3F1/MALE, Route: ORAL, Dose: 0, 150, 300 PPM IN DRINKING WATER, Dose: 0, 150, 300 PPM IN DRINKING WATER, Tumor Site: Type of Lesion: THYROID GLAND: FOLLICULAR CELL ADENOMA, ADRENAL GLAND: PHEOCHROMOCYTOMA, LIVER: HEPATOCELLULAR ADENOMA, CARCINOMA, Tumor Site: Type of Lesion: THYROID GLAND: FOLLICULAR CELL ADENOMA, ADRENAL GLAND: PHEOCHROMOCYTOMA, LIVER: HEPATOCELLULAR ADENOMA, CARCINOMA); “active; positive” (Species: RAT, Strain/Sex: F344/FEMALE, Route: ORAL, Dose: 0, 0.015, 0.03% IN DIET FOR 103 WK (STUDY DURATION: 104 WK), Dose: 0, 0.015, 0.03% IN DIET FOR 103 WK (STUDY DURATION: 104 WK), Tumor Site: Type of Lesion: THYROID GLAND: FOLLICULAR ADENOMA); “active; positive” (Species: RAT, Strain/Sex: F344/FEMALE, Route: ORAL, Dose: 0, 150, 300 PPM IN DRINKING WATER, Dose: 0, 150, 300 PPM IN DRINKING WATER, Tumor Site: Type of Lesion: THYROID GLAND: FOLLICULAR CELL ADENOMA, CARCINOMA, C CELL ADENOMA, CARCINOMA). Further, the carcinogen call by setting is: (Species: RAT, Strain/Sex: F344/MALE, Route: ORAL, Dose: 0, 0.15, 0.03% IN DIET FOR 103 WK (STUDY DURATION: 104 WK), Dose: 0, 0.15, 0.03% IN DIET FOR 103 WK (STUDY DURATION: 104 WK), Tumor Site: Type of Lesion: THYROID GLAND: FOLLICULAR CARCINOMA, LIVER: NEOPLASTIC NODULE) “active; positive”; (Species: RAT, Strain/Sex: F344/MALE, Route: ORAL, Dose: 0, 150, 300 PPM IN DRINKING WATER, Dose: 0, 150, 300 PPM IN DRINKING WATER, Tumor Site: Type of Lesion: THYROID GLAND: FOLLICULAR CELL ADENOMA, CARCINOMA, LIVER: NEOPLASTIC NODULE) “active; positive”.

As to `CC(C)(c1ccc(O)cc1)c1ccc(O)cc1`, the carcinogen call is “inactive; negative” (Species: MOUSE, Strain/Sex: B6C3F1/FEMALE, Route: ORAL, Dose: 0, 5000, 10000 PPM IN DIET FOR 103 WK (STUDY DURATION: 103 WK), Dose: 0, 5000, 10000 PPM IN DIET FOR 103 WK (STUDY DURATION: 103 WK)); “equivocal” (Species: MOUSE, Strain/Sex: B6C3F1/MALE, Route: ORAL, Dose: 0, 1000, 5000 PPM IN DIET FOR 103 WK (STUDY DURATION: 103 WK), Dose: 0, 1000, 5000 PPM IN DIET FOR 103 WK (STUDY DURATION: 103 WK), Tumor Site: Type of Lesion: HEMATOPOIETIC SYSTEM: LYMPHOMA OR LEUKEMIA); “inactive; negative (nonneoplastic and preneoplastic lesions observed in ovary/oviduct and” (Species: Mouse, Strain/Sex: CD-1/Female (24/group); Route: Subcutaneous; Dose: 0; 10; 100; 1000 ug/kg in corn oil, once a day from days 1-5 of life; study duration 18 mo); Dose: 0; 10; 100; 1000 ug/kg in corn oil, once a day from days 1-5 of life; study duration 18 mo), Tumor Site: Type of Lesion: Uterus, leiomyoma (0/18; 1/23; 2/20; 1/16 [multiple lesions]), Tumor Site: Type of Lesion: Uterus, leiomyoma (0/18; 1/23; 2/20; 1/16 [multiple lesions])); “equivocal” (Species: RAT, Strain/Sex: F344/FEMALE, Route: ORAL, Dose: 0, 1000, 2000 PPM IN DIET FOR 103 WK (STUDY DURATION: 103 WK), Dose: 0, 1000, 2000 PPM IN DIET FOR 103 WK (STUDY DURATION: 103 WK), Tumor Site: Type of Lesion: HEMATOPOIETIC SYSTEM: LEUKEMIA); “equivocal” (Species: RAT, Strain/Sex: F344/MALE, Route: ORAL, Dose: 0, 1000, 2000 PPM IN DIET FOR 103 WK (STUDY DURATION: 103 WK), Dose: 0, 1000, 2000 PPM IN DIET FOR 103 WK (STUDY DURATION: 103 WK), Tumor Site: Type of Lesion: HEMATOPOIETIC SYSTEM: LEUKEMIA); “active; positive (significant increase at all dose levels at pnd 50; significant at 2.5” (Species: Rat, Strain/Sex: Wistar-Furth/Female (?/group with maximum of 8 pups per dam), Route: Osmotic pump to dams, Dose: 0, 2.5, 25, 250, 1000 ug/kg bw/day from embryonic day 9 to postnatal day 1, study duration 50 or 95 postnatal days, Dose: 0, 2.5, 25, 250, 1000 ug/kg bw/day from embryonic day 9 to postnatal day 1, study duration 50 or 95 postnatal days, Tumor Site: Type of Lesion: Mammary gland, ductal hyperplasia).

In the case of `CC(C)C=O`, the carcinogen call was “inactive; negative” (Species: MOUSE, Strain/Sex: B6C3F1/FEMALE, Route: INHALATION, Dose: 0, 500, 1000, 2000 PPM 6 HR/D 5 D/WK FOR 105 WK (STUDY DURATION: 105 WK), Dose: 0, 500, 1000, 2000 PPM 6 HR/D 5 D/WK FOR 105 WK (STUDY DURATION: 105 WK)); “inactive; negative” (Species: MOUSE, Strain/Sex: B6C3F1/MALE, Route: INHALATION, Dose: 0, 500, 1000, 2000 PPM 6 HR/D 5 D/WK FOR 105 WK (STUDY DURATION: 105 WK), Dose: 0, 500, 1000, 2000 PPM 6 HR/D 5 D/WK FOR 105 WK (STUDY DURATION: 105 WK)); “inactive; negative” (Species: RAT, Strain/Sex: F344/FEMALE, Route: INHALATION, Dose: 0, 500, 1000, 2000 PPM 6 HR/D 5 D/WK FOR 105 WK (STUDY DURATION: 105 WK), Dose: 0, 500, 1000, 2000 PPM 6 HR/D 5 D/WK FOR 105 WK (STUDY DURATION: 105 WK)); “inactive; negative” (Species: RAT, Strain/Sex: F344/MALE, Route: INHALATION, Dose: 0, 500, 1000, 2000 PPM 6 HR/D 5 D/WK FOR 105 WK (STUDY DURATION: 105 WK), Dose: 0, 500, 1000, 2000 PPM 6 HR/D 5 D/WK FOR 105 WK (STUDY DURATION: 105 WK)).
